Holding throughout (assay type): cell-based
In test [1] the target is T1, Human GPR40 (Homo sapiens, UniProt O14842). Put plainly: Inositol phosphate turnover (IP1) assay in HEK cells stably expressing human GPR40. The conditions noted are these: HEK cells stably expressing human GPR40, 3H-inositol labeling, 60 min compound incubation. The method, then: (§1) Human and mouse GPR40 stable cell-lines were generated in CHO cells stably expressing NFAT BLA (Beta-lactamase). A human GPR40 stable cell-line was generated in HEK cells stably expressing the aequorin expressing reporter. The expression plasmids were transfected using lipofectamine, LIFE TECHNOLOGIES (Carlsbad, Calif.), following manufacturer's instructions. Stable cell-lines were generated following drug selection.
(§2) The assay is performed in a 96-well format. HEK cells stably expressing human GPR40 are plated to be 60-80% confluent within 72 h. After 72 h, the plates are aspirated and the cells washed with inositol-free DMEM (ICN). The wash media is replaced with 150 μL of 3H-inositol labeling media (inositol-free media containing 0.4% human albumin or 0.4% mouse albumin, 1× pen/strep antibiotics, glutamine, 25 mM HEPES to which is added 3H-myo-inositol NEN #NET114A 1 mCi/mL, 25 Ci/mmol diluted 1:150 in loading media with a final specific radioactivity of 1 μCi/150 μL). Alternatively, the human and mouse albumin can be added after the overnight labeling step before the addition of LiCl.
The assay is typically run the next day after 18 h labeling. On the day of the assay, 5 μL of 300 mM LiCl is added to all wells and incubated at 37 degrees for 20 min. […] Beads are allowed to settle and the plates are counted in the Wallac MICROBETA instrument. […]

Test [2] deals with T1, Human GPR40. Put plainly: FLIPR assay: agonist-induced calcium mobilization in GPR40/CHO NFAT BLA cells. Further details: expressed in transfected cells; host or cells: CHO cells stably expressing NFAT BLA (beta-lactamase).
Text: as §1
FLIPR (Fluorimetric Imaging Plate Reader, Molecular Devices) assays were performed to measure agonist-induced calcium mobilization of the stable clones. For the FLIPR assay, one day before assay, GPR40/CHO NFAT BLA cells were seeded into black-wall-clear-bottom 384-well plates (Costar) at 1.4×10e4 cells/20 μL medium/well. The cells were incubated with 20 μl/well of the assay buffer (HBSS, 0.1% BSA, 20 mM HEPES, 2.5 mM probenecid, pH 7.4) containing 8 μM fluo-4, AM, 0.08% pluronic acid at room temperature for 100 minutes. Fluorescence output was measured using FLIPR. Compounds were dissolved in DMSO and diluted to desired concentrations with assay buffer. 13.3 μL/well of compound solution was added. The activities of the compounds in the examples have EC50 (effective concentration of compound to afford 50% of the maximum observed fluorescence) values listed in Table I.

The target of test [3] is T1, Human GPR40. Put plainly: Inositol phosphate turnover (IP1) assay in HEK cells stably expressing human GPR40. More on the design: expressed in transfected cells. Particulars: HEK cells stably expressing human GPR40, 3H-inositol labeling, 60 min compound incubation. The procedure:
as §1, §2
The assay is typically run the next day after 18 h labeling. On the day of the assay, 5 μL of 300 mM LiCl is added to all wells and incubated at 37 degrees for 20 min. 0.75 μL of 200× compounds are added and incubated with the cells for 60 min at 37 degrees. The media is then aspirated off and the assay terminated with the addition of 60 μL 10 mM formic acid. The cells are lysed for 60 min at room temperature. 15-30 μL of lysate is mixed with 70 μL/1 mg YSi SPA beads AMERSHAM (United Kingdom) in clear bottom Isoplates. The plates are shaken for 2 h at room temperature. Beads are allowed to settle and the plates are counted in the Wallac MICROBETA instrument. The activities of the compounds in the examples have EC50 (effective concentration of compound to afford 50% of the maximum observed […]) values listed in Table I.

Each structure is given as a SMILES string. Where a name gives a salt, the structure may show the parent alone.

Our source for the EC50 values is patent publication US9834563B2 (Merck Sharp & Dohme Corp., priority 2013, dated 2017).

T1 sequence (O14842 whole entry): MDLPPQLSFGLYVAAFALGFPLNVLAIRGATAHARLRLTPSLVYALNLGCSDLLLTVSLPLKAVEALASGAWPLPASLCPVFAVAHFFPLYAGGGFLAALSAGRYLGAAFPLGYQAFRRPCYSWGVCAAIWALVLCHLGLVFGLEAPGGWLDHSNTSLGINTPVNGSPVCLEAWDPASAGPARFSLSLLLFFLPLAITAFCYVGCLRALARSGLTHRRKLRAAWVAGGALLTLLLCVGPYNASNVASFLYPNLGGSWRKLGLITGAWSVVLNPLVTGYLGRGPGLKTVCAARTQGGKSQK

For orientation: EC50 means the concentration at which the effect is half-maximal. Regarding `Cc1nc(N2CCN(S(C)(=O)=O)CC2)ccc1-c1cccc(COc2ccc3c(c2)C[C@H]2[C@H](C(=O)O)[C@@H]32)c1` [Example 48], the EC50 turned out to be 38.5 nM in test [1] and 76.7 nM in test [2].

Turning to `Cc1nc(N2CCC(c3ccccc3)CC2)nc(C)c1-c1ccc(F)c(COc2ccc3c(c2)C[C@H]2[C@H](C(=O)O)[C@@H]32)c1F` [Example 45, (1S,1aS,6aR)-4-((3-(4,6-dimethyl-2-(4-phenylpiperidin-1-yl)pyrimidin-5-yl)-2,6-difluorobenzyl)oxy)-1,1a,6,6a-tetrahydrocyclopropa[a]indene-1-carboxylic acid], the EC50 came to 853 nM in test [3] and 29.4 nM in test [2].

Turning to `Cc1nc(OCCCC2(O)CC2)ccc1-c1ccc(F)c(COc2ccc3c(c2)C[C@H]2[C@H](C(=O)O)[C@@H]32)c1` [Example 37, (1S,1aS,6aR)-4-((2-fluoro-5-(6-(3-(1-hydroxycyclopropyl)propoxy)-2-methylpyridin-3-yl)benzyl)oxy)-1,1a,6,6a-tetrahydrocyclopropa[a]indene-1-carboxylic acid], the EC50 came to 14.7 nM in test [3] and 16.6 nM in test [2].

Take `Cc1nc(OCCCS(C)(=O)=O)ccc1-c1ccc(F)c(COc2ccc3c(c2)C[C@H]2[C@H](C(=O)O)[C@@H]32)c1` [Example 1, (1S,1aS,6aR)-4-[(2-fluoro-5-{2-methyl-6-[3-(methylsulfonyl)propoxy]pyridin-3-yl}benyzyl)oxy]-1,1a,6,6a-tetrahydrocyclopropa[a]indene-1-carboxylic acid]: the figures for the EC50 in test [3] and in test [2] were 7.3 nM and 46 nM, respectively.

Turning to `Cc1nc(N2CCC(CS(C)(=O)=O)CC2)ccc1-c1ccc(F)c(COc2ccc3c(c2)C[C@H]2[C@H](C(=O)O)[C@@H]32)c1` [Example 50, (1S,1aS,6aR)-4-((2-fluoro-5-(2-methyl-6-(4-((methylsulfonyl)methyl)piperidin-1-yl)pyridine-3-yl)benzyl)oxy)-1,1a,6,6a-tetrahydrocyclopropa[a]indene-1-carboxylic acid], the values for the concentration giving a half-maximal response (EC50) in test [3] and in test [2] were 27 nM and 58 nM, respectively.

On to `CS(=O)(=O)CCCOc1cc(C(F)(F)F)c(-c2ccc(F)c(COc3ccc4c(c3)C[C@H]3[C@H](C(=O)O)[C@@H]43)c2)cn1` [Example 32, (1S,1aS,6aR)-4-((2-fluoro-5-(6-(3-(methylsulfonyl)propoxy)-4-(trifluoromethyl)pyridin-3-yl)benzyl)oxy)-1,1a,6,6a-tetrahydrocyclopropa[a]indene-1-carboxylic acid], for which the EC50 in test [3] was found to be 5 nM; in test [2], 20.6 nM.

Consider `Cc1nc(NCCCS(C)(=O)=O)ccc1-c1ccc(F)c(COc2ccc3c(c2)C[C@H]2[C@H](C(=O)O)[C@@H]32)c1` [Example 11, 4-{2-Fluoro-5-[6-(3-methanesulfonyl-propylamino)-2-methyl-pyridin-3-yl]-benzyloxy}-1,1a,6,6a-tetrahydro-cyclopropa[a]indene-1-carboxylic acid], for which the EC50 was 43.5 nM in test [3] and 55.9 nM in test [2].

Turning to `Cc1nc(N2CCC3(C=Cc4ccccc43)CC2)ccc1-c1ccc(F)c(COc2ccc3c(c2)C[C@H]2[C@H](C(=O)O)[C@@H]32)c1` [Example 40], the EC50 turned out to be 519 nM in test [3] and 32 nM in test [2].

For the compound `Cc1ccc(COc2ccc3c(c2)C[C@H]2[C@H](C(=O)O)[C@@H]32)cc1-c1cnc2c(ccn2CCCS(C)(=O)=O)c1` [Example 23, (1S,1aS,6aR)-4-((4-methyl-3-(1-(3-(methylsulfonyl)propyl)-1H-pyrrolo[2,3-b]pyridin-5-yl)benzyl)oxy)-1,1a,6,6a-tetrahydrocyclopropa[a]indene-1-carboxylic acid], the values for the EC50 in test [3] and in test [2] were 84.5 nM and 74.2 nM, respectively.

Regarding `Cc1cc(OCCCS(C)(=O)=O)nc(C)c1-c1cccc(COc2ccc3c(c2)C[C@H]2[C@H](C(=O)O)[C@@H]32)c1` [Example 4, (1S,1aS,6aR)-4-[(3-{2,4-dimethyl-6-[3-(methylsulfonyl)propoxy]pyridin-3-yl}benzyl)oxy]-1,1a,6,6a-tetrahydrocyclopropa[a]indene-1-carboxylic acid], the EC50 is 15 nM in test [3] and 89.1 nM in test [2].

Take `Cc1cc(-c2ccc(F)c(COc3ccc4c(c3)C[C@H]3[C@H](C(=O)O)[C@@H]43)c2)c2c(cnn2C)n1` [Example 53, 7-(3-((((1S,1aS,6aR)-1-carboxy-1,1a,6,6a-tetrahydrocyclopropa[a]inden-4-yl)oxy)methyl)-4-fluorophenyl)-1,5-dimethyl-1H-pyrazolo[4,3-b]pyridin-4-ium formate]: the results for the EC50 in test [3] and in test [2] were 39 nM and 51.8 nM, respectively.

`Cc1nc(N2CCC(C)(O)CC2)ccc1-c1ccc(F)c(COc2ccc3c(c2)C[C@H]2[C@H](C(=O)O)[C@@H]32)c1` [Example 43, (1S,1aS,6aR)-4-((2-fluoro-5-(6-(4-hydroxy-4-methylpiperidin-1-yl)-2-methylpyridin-3-yl)benzyl)oxy)-1,1a,6,6a-tetrahydrocyclopropa[a]indene-1-carboxylic acid]: the EC50 in test [3] is 13 nM; in test [2], 75.5 nM.

Take `Cc1nc(OCCCCn2nccn2)ccc1-c1ccc(F)c(COc2ccc3c(c2)CC2C(C(=O)O)C32)c1` (stereo not drawn) [Example 29, 4-((5-(6-(4-(2H-1,2,3-triazol-2-yl)butoxy)-2-methyl-pyridin-3-yl)-2-fluorobenzyl)oxy)-1,1a,6,6a-tetrahydrocyclo-propa[a]indene-1-carboxylic acid]: the results for the concentration giving a half-maximal response (EC50) in test [3] and in test [2] were 26.5 nM and 16.1 nM, respectively.

As to `Cc1nc(OC2CCS(=O)(=O)CC2)ccc1-c1ccc(F)c(COc2ccc3c(c2)C[C@H]2[C@H](C(=O)O)[C@@H]32)c1` [Example 2, (1S,1aS,6aR)-4-[(5-{6-[(1,1-dioxidotetrahydro-2H-thiopyran-4-yl)oxy]-2-methylpyridin-3-yl)-2-fluorobenzyl]oxy}-1,1a,6,6a-tetrahydrocyclopropa[a]indene-1-carboxylic acid], the values for the EC50 in test [3] and in test [2] were 18.5 nM and 70.2 nM, respectively.

In the case of `Cc1nc(OCCCOCc2ccccc2)ccc1-c1ccc(F)c(COc2ccc3c(c2)C[C@H]2[C@H](C(=O)O)[C@@H]32)c1` [Example 34, (1S,1aS,6aR)-4-((5-(6-(3-(benzyloxy)propoxy)-2-methylpyridin-3-yl)-2-fluorobenzyl)oxy)-1,1a,6,6a-tetrahydrocyclo-propa[a]indene-1-carboxylic acid], the EC50 in test [3] was found to be 889 nM; in test [2], 75.1 nM.

For `O=C(O)[C@H]1[C@@H]2Cc3cc(OCc4cc(-c5cnc(NCC6CCOCC6)cc5C(F)(F)F)ccc4F)ccc3[C@@H]21` [Example 55, (1S,1aS,6aR)-4-((2-fluoro-5-(6-(((tetrahydro-2H-pyran-4-yl)methyl)amino)-4-(trifluoromethyl)pyridin-3-yl)benzyl)oxy)-1,1a,6,6a-tetrahydrocyclopropa[a]indene-1-carboxylic acid], the values for the EC50 in test [3] and in test [2] were 5.5 nM and 35.4 nM, respectively.

Regarding `CS(=O)(=O)CCCOc1ncc(-c2ccc(F)c(COc3ccc4c(c3)C[C@H]3[C@H](C(=O)O)[C@@H]43)c2)c(C(F)(F)F)n1` [Example 33], the EC50 is 6.5 nM in test [1] and 30.7 nM in test [2].

As to `Cc1nc(OC2CCN(S(C)(=O)=O)CC2)ccc1-c1ccc(F)c(COc2ccc3c(c2)C[C@H]2[C@H](C(=O)O)[C@@H]32)c1` [Example 49, (1S,1aS,6aR)-4-((2-fluoro-5-(2-methyl-6-((1-(methylsulfonyl)piperidin-4-yl)oxy)pyridin-3-yl)benzyl)oxy)-1,1a,6,6a-tetrahydrocyclopropa[a]indene-1-carboxylic acid], the EC50 amounted to 19.5 nM in test [3] and 28.9 nM in test [2].
